# Laboratory results from patent US11083729B2, “Methods of treating cancer with small molecule NF-κB inhibitors” (ImmuneTarget, Inc., priority 2017, dated 2021).
# What was measured:
# T47D = assay: CellTiter-Glo IG50, Example 8, T47D; format: cell-based; details: Homo sapiens, 72 hours
# Procedure: (§1) Various pancreatic, liver, colon, breast, and stomach cancer cell lines were exposed to the NF-κB inhibitors of the present invention, including, for example, IT-839, IT-843, IT-848, and IT-878, and assessed for IG50 in the CellTiter Glo 2.0 assay.
# (§2) The cells were cultured in an atmosphere of 37° C., 5% CO2 and 95% humidity. All culture media and FBS were purchased from GIBCO, Hyclone or Sigma, USA. The media used for cell culture is described in the table below.
# (§3) The cells were harvested during the logarithmic growth period and counted. Cell concentrations were adjusted to the appropriate number in appropriate medium and 90 μl cell suspensions were added to 96-well plates. When cells were added, the plates were shaken gently to distribute the cells evenly. Cells were incubated at 37° C. and 5% CO2.
# (§4) 3× serial dilutions of test compound stock solutions with respective solvents were prepared. The stock solutions were diluted with culture medium to generate 10× working solutions of the test compounds. 10 μl of the 10× test compound solutions were added to each well in triplicate for each concentration. Plates were incubated for 72 hours in a humidified incubator at 37° C. and 5% CO2.
# (§5) CellTiter-Glo (CTG) solution was thawed and equilibrated to room temperature. 50 μl of CTG were added to each well and the contents were mixed for 2 minutes on a plate shaker. Cells were incubated for 10 minutes before luminescence signal was recorded using Envision.
# (§6) Cell viability was plotted with GraphPad Prism version 5 and the IG50 was calculated for each cell line. The graphical curves were fitted using a nonlinear regression model with a sigmoidal dose response. IG50 is the concentration of test drug where 100×T/C=50 (the optical density of the test well after a 3-day period of exposure to test drug is T; the control optical density is C).
# Capan-1 = assay: CellTiter-Glo IG50, Example 8, Capan-1; format: cell-based; details: Homo sapiens, Capan-1, 72 hours
# Procedure: as §1, §2, §3, §4, §5, §6
# MIAPACA-2 = assay: CellTiter-Glo IG50, Example 8, MIAPACA-2; format: cell-based; details: Homo sapiens, MIA PaCa-2, MIAPACA-2, 72 hours
# Procedure: as §1, §2, §3, §4, §5, §6
# MDA-MB-231 = assay: CellTiter-Glo IG50, Example 8, MDA-MB-231; format: cell-based; details: Homo sapiens, MDA-MB-231, 72 hours
# Procedure: as §1, §2, §3, §4, §5, §6
# MCF-7 = assay: CellTiter-Glo IG50, Example 8, MCF-7; format: cell-based; details: Homo sapiens, MCF7, MCF-7, 72 hours
# Procedure: as §1, §2, §3, §4, §5, §6
# PANC-1 = assay: CellTiter-Glo IG50, Example 8, PANC-1; format: cell-based; details: Homo sapiens, PANC-1, 72 hours
# Procedure: as §1, §2, §3, §4, §5, §6
# SNU878 = assay: CellTiter-Glo IG50, Example 9 HCC panel, SNU878; format: cell-based; details: SNU878, 72 hours
# Procedure: as §3, §4, §5, §6, §2
# (§7) Following the cell culture protocol and data analysis methods described in Example 8, the following IG50 results (in μM) were observed: […]
# JHH5 = assay: CellTiter-Glo IG50, Example 9 HCC panel, JHH5; format: cell-based; details: JHH5, 72 hours
# Procedure: as §3, §4, §5, §6, §2, §7
# PLC/PRF/5 [1] = assay: CellTiter-Glo IG50, Example 9 HCC panel, PLC/PRF/5; format: cell-based; details: Homo sapiens, PLC/PRF/5, 72 hours
# Procedure: as §3, §4, §5, §6, §2, §7
# HepG2 [2] = assay: CellTiter-Glo IG50, Example 9 HCC panel, HepG2; format: cell-based; details: Homo sapiens, HepG2, 72 hours
# Procedure: as §3, §4, §5, §6, §2, §7
# PBMC = assay: CellTiter-Glo IG50, Example 9 HCC panel, PBMC; format: cell-based; details: 72 hours
# Procedure: as §3, §4, §5, §6, §2, §7
# Hep3B [3] = assay: CellTiter-Glo IG50, Example 9 HCC panel, Hep3B; format: cell-based; details: Homo sapiens, 72 hours
# Procedure: as §3, §4, §5, §6, §2, §7
# HUH7 = assay: CellTiter-Glo IG50, Example 9 HCC panel, HUH7; format: cell-based; details: Homo sapiens, Huh-7, HUH7, 72 hours
# Procedure: as §3, §4, §5, §6, §2, §7
# HT-29 = assay: CellTiter-Glo IG50, Example 8, HT-29; format: cell-based; details: Homo sapiens, HT-29, 72 hours
# Procedure: as §1, §2, §3, §4, §5, §6
# MKN45 = assay: CellTiter-Glo IG50, Example 8, MKN45; format: cell-based; details: Homo sapiens, MKN-45, MKN45, 72 hours
# Procedure: as §1, §2, §3, §4, §5, §6
# AGS = assay: CellTiter-Glo IG50, Example 8, AGS; format: cell-based; details: Homo sapiens, 72 hours
# Procedure: as §1, §2, §3, §4, §5, §6
# HCT116 = assay: CellTiter-Glo IG50, Example 8, HCT116; format: cell-based; details: Homo sapiens, HCT-116, HCT116, 72 hours
# Procedure: as §1, §2, §3, §4, §5, §6
# KATO III = assay: CellTiter-Glo IG50, Example 8, KATO III; format: cell-based; details: Homo sapiens, 72 hours
# Procedure: as §1, §2, §3, §4, §5, §6
# HepG2 [4] = assay: CellTiter-Glo IG50, Example 8, HepG2; format: cell-based; details: Homo sapiens, HepG2, 72 hours
# Procedure: as §1, §2, §3, §4, §5, §6
# LoVo = assay: CellTiter-Glo IG50, Example 8, LoVo; format: cell-based; details: Homo sapiens, 72 hours
# Procedure: as §1, §2, §3, §4, §5, §6
# Hep3B [5] = assay: CellTiter-Glo IG50, Example 8, Hep3B; format: cell-based; details: Homo sapiens, 72 hours
# Procedure: as §1, §2, §3, §4, §5, §6
# PLC/PRF/5 [6] = assay: CellTiter-Glo IG50, Example 8, PLC/PRF/5; format: cell-based; details: Homo sapiens, PLC/PRF/5, 72 hours
# Procedure: as §1, §2, §3, §4, §5, §6
# c-Rel protein = biological target: T1, c-Rel protein (Homo sapiens, UniProt Q04864); assay: Electrophoretic Mobility Shift Assay (EMSA), c-Rel binding to CD28RE oligonucleotide; details: 10 nM c-Rel protein
# T1 sequence (Q04864 1-619): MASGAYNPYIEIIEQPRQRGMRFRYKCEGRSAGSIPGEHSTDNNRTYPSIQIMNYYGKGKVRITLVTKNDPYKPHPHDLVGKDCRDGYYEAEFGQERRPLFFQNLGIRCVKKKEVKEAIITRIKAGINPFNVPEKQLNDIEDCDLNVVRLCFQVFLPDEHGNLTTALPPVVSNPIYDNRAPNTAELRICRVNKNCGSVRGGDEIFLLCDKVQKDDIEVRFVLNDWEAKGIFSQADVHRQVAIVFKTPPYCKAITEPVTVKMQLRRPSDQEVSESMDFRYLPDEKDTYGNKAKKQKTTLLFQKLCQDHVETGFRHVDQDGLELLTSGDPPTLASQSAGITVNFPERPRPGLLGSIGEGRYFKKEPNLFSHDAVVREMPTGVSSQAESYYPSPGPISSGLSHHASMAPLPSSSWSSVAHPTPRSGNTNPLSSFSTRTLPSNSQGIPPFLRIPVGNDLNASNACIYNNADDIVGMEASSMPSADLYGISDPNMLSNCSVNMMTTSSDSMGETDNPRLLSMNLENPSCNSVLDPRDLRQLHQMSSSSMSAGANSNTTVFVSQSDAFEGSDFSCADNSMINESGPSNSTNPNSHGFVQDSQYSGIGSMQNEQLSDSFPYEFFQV
# Procedure: DNA binding reaction (20 μL) was carried out in 1×DNA Binding Buffer (10 mM Tris, 40 mM NaCl, 1 mM EDTA, 4% glycerol) with 10 nM c-Rel protein and 0.5 ng phosphor-labeled CD28RE oligonucleotide for 10 minutes at room temperature in 96-well plates. Test compounds, in serial dilutions, were added into each well, and further incubated for 15 minutes before loading onto native 5% polyacrylamide gel. Electrophoresis proceeded for 2.5 hours at 160V. Radioactive signals were quantified using Phospho-Imager. IC50 of compounds of example 1 to 75 were determined by quantifying the intensity of Rel/NF-κB inhibition in EMSA using phospho-imager. An example of EMSA data of the present invention is shown for compound 6 in FIG. 2.
compound,measurement,setting,value
"Nc1ccn([C@@H]2O[C@H](CO)[C@@H](O)C2(F)F)c(=O)n1 [Gemcitabine, gemcitabine, reference compound]",IC50,T47D,> 16 µM
same,IC50,Capan-1,0.051 µM
same,IC50,MIAPACA-2,0.012 µM
same,IC50,MDA-MB-231,> 16 µM
same,IC50,MCF-7,> 16 µM
same,IC50,PANC-1,> 16 µM
CCCCCCCOc1ccc2cc3c(=O)[nH]c(=O)nc-3oc2c1Cl [IT-846],IC50,SNU878,> 16 µM
same,IC50,JHH5,> 16 µM
same,IC50,PLC/PRF/5 [1],8.51 µM
same,IC50,HepG2 [2],4.27 µM
same,IC50,PBMC,456 nM
same,IC50,Hep3B [3],2.34 µM
same,IC50,HUH7,3.39 µM
COCCCCOc1ccc2cc3c(=O)[nH]c(=O)nc-3oc2c1Cl [IT-878],IC50,HT-29,> 16 µM
same,IC50,T47D,> 16 µM
same,IC50,MKN45,> 16 µM
same,IC50,AGS,> 16 µM
same,IC50,Capan-1,> 16 µM
same,IC50,MIAPACA-2,17.8 µM
same,IC50,MDA-MB-231,> 16 µM
same,IC50,MCF-7,> 16 µM
same,IC50,HCT116,> 16 µM
same,IC50,PANC-1,> 16 µM
same,IC50,KATO III,> 16 µM
same,IC50,HepG2 [4],> 16 µM
same,IC50,LoVo,> 16 µM
same,IC50,Hep3B [5],3.45 µM
same,IC50,PLC/PRF/5 [6],> 16 µM
"O=c1[nH]cc(F)c(=O)[nH]1 [5-FU, 5-fluorouracil, reference compound]",IC50,HT-29,15.9 µM
same,IC50,MKN45,4.72 µM
same,IC50,AGS,31.9 µM
same,IC50,HCT116,5.2 µM
same,IC50,KATO III,> 64 µM
same,IC50,LoVo,27 µM
O=C(O)CCCCCOc1ccc2cc3c(=O)[nH]c(=O)nc-3oc2c1Cl [IT-855],IC50,SNU878,9.15 µM
same,IC50,JHH5,8.15 µM
same,IC50,PLC/PRF/5 [1],> 16 µM
same,IC50,HepG2 [2],> 16 µM
same,IC50,PBMC,> 16000 nM
same,IC50,Hep3B [3],> 16 µM
same,IC50,HUH7,> 16 µM
"CC(=O)OCCCCOc1ccc2cc3c(=O)[nH]c(=O)nc-3oc2c1Cl [compound 60, 4-((9-chloro-2,4-dioxo-3,4-dihydro-2H-chromeno[2,3-d]pyrimidin-8-yl)oxy)butyl acetate]",IC50,c-Rel protein,< 5000 nM
"Cc1cc2oc3nc(=O)[nH]c(=O)c-3cc2cc1F [compound 27, 7-fluoro-8-methyl-2H-chromeno[2,3-d]pyrimidine-2,4(3H)-dione]",IC50,c-Rel protein,< 500 nM
CCCCOc1cc2oc3nc(=O)[nH]c(=O)c-3cc2cc1F [compound 29],IC50,c-Rel protein,< 500 nM
CC(C)(C)COc1cc2oc3nc(=O)[nH]c(=O)c-3cc2cc1F [compound 36],IC50,c-Rel protein,< 500 nM
COCCOCCCOc1ccc2cc3c(=O)[nH]c(=O)nc-3oc2c1 [compound 71],IC50,c-Rel protein,< 1000 nM
CC(C)COc1ccc2cc3c(=O)[nH]c(=O)nc-3oc2c1F [compound 48],IC50,c-Rel protein,< 500 nM
COCCOCCOc1ccc2cc3c(=O)[nH]c(=O)nc-3oc2c1Cl [IT-876],IC50,SNU878,> 16 µM
same,IC50,JHH5,8.5 µM
same,IC50,PLC/PRF/5 [1],> 16 µM
same,IC50,HepG2 [2],4.9 µM
same,IC50,PBMC,8670 nM
same,IC50,Hep3B [3],> 16 µM
same,IC50,HUH7,17.7 µM
CC(C)CCCOc1cc2oc3nc(=O)[nH]c(=O)c-3cc2cc1F [IT-839],IC50,HT-29,> 16 µM
same,IC50,T47D,> 16 µM
same,IC50,MKN45,> 16 µM
same,IC50,AGS,> 16 µM
same,IC50,Capan-1,> 16 µM
same,IC50,MIAPACA-2,> 16 µM
same,IC50,MDA-MB-231,2.01 µM
same,IC50,MCF-7,> 16 µM
same,IC50,HCT116,> 16 µM
same,IC50,PANC-1,6.93 µM
same,IC50,KATO III,> 16 µM
same,IC50,HepG2 [4],10.5 µM
same,IC50,LoVo,4.34 µM
same,IC50,Hep3B [5],3.35 µM
same,IC50,PLC/PRF/5 [6],> 16 µM
CC(=O)OCCCOc1ccc2cc3c(=O)[nH]c(=O)nc-3oc2c1Cl [compound 59],IC50,c-Rel protein,< 5000 nM
"CCOc1ccc2cc3c(=O)[nH]c(=O)nc-3oc2c1 [compound 13, 8-ethoxy-2H-chromeno[2,3-d]pyrimidine-2,4(3H)-dione]",IC50,c-Rel protein,< 1000 nM
CC(C)CCOc1ccc2cc3c(=O)[nH]c(=O)nc-3oc2c1Cl [compound 40],IC50,c-Rel protein,< 500 nM
"COc1ccc2cc3c(=O)[nH]c(=S)nc-3oc2c1 [compound 8, 8-methoxy-2-thioxo-2H-chromeno[2,3-d]pyrimidin-4(3H)-one]",IC50,c-Rel protein,< 500 nM
CCCCCCCOc1ccc2cc3c(=O)[nH]c(=O)nc-3oc2c1F [compound 52],IC50,c-Rel protein,< 500 nM
COCCCCOc1cc2oc3nc(=O)[nH]c(=O)c-3cc2cc1F [compound 70],IC50,c-Rel protein,< 1000 nM
CCCCCCOc1cc2oc3nc(=O)[nH]c(=O)c-3cc2cc1F [IT-835],IC50,SNU878,> 16 µM
same,IC50,JHH5,> 16 µM
same,IC50,PLC/PRF/5 [1],> 16 µM
same,IC50,HepG2 [2],> 16 µM
same,IC50,PBMC,985 nM
same,IC50,Hep3B [3],3.26 µM
same,IC50,HUH7,5.4 µM
